Measurements reported in US20200276181A1, “THIENOISOQUINOLINES AND THEIR DERIVATIVES FOR TARGETING TUBULIN, CH-TOG, AURORA A KINASE, TPX2, CDK5RAP2 AND/OR ASPM” (VALORBEC, SEC, priority 2017, published 2020).

Experiments:
[1] = test system: A549 cells; experiment: Viability IC50 of C75 in combination with subthreshold colchicine; assay type: cell-based, human; conditions: + 9 nM colchicine
[2] = test system: HCT116 spheroids; experiment: Multicellular tumour spheroids; assay type: cell-based
Description: FIGS. 5A, 5B, 5C, 5D, 5E, 5F, 5G, 5H, 5I, 5J, 5K, 5L and 5M show how C75 disrupts or reduces the growth of HeLa, HCT116 and A549 spheroids. FIG. 5A) images show HeLa spheroids over time (3 days) before and after treatment with control (1 μM C87; n=10), 250 nM (n=6) or 500 nM (n=10) of C75. The scale bar is 100 μm. FIG. 5B) is a series images of HeLa spheroids after three days of treatment with control (500 nM C87) or 500 nM C75. The spheroids were stained for fluorescein diacetate (to detect live cells) and propidium iodide (to detect dead cells). […] The scale bar is 100 μm. FIG. 5C) is a line graph showing the change in spheroid area (μm^2) for each day and treatment as indicated. Bars show standard deviation and the asterisks are p<0.05 as determined by the student's t test. FIG. 5D) images show HeLa spheroids over 3 days before and after treatment with empty nanoparticles (control; n=3) or 250 nM of nanoparticle-encapsulated C75 (n=3). The scale bar is 100 μm. […] Bars show standard deviation and the asterisks are p<0.05 as determined by the student's t test. FIG. 5F) is a series of images of HCT116 spheroids treated with control (1 μM C87; n=10), 500 nM C75 (n=10) and 1 μM C75 (n=10). FIG. 5G) is a series images of HCT116 spheroids after six days of treatment with control (1 μM C87) or 1 μM C75. The spheroids were stained for fluorescein diacetate (live cells) and propidium iodide (dead cells). […] FIG. 5H) is a line graph showing the growth in surface area (%) of HCT116 spheroids treated with control (1 μM C87), 500 nM C75 and 1 μM C75 after six days. FIG. 5I) is a series of images of A549 spheroids treated with control (1 μM C87, n=6), 500 nM C75 (n=6), and 1 μM C75 (n=6) over 5 days. The scale bar is 100 μm. FIG. 5J) is a series of images of A549 spheroids after six days of treatment with control (750 nM C87) or 1 μM C75. The spheroids were stained for fluorescein diacetate (live cells) and propidium iodide (dead cells). […] Bars show standard deviation and the asterisks are p<0.05 as determined by the student's t test. FIG. 5L) images show A549 spheroids over 6 days before and after treatment with empty nanoparticles (control; n=3) or 500 nM of nanoparticle-encapsulated C75 (n=3). The scale bar is 100 μm. […] Bars show standard deviation and the asterisks are p<0.05 as determined by the student's t test.
FIG. 11A) is a series of images of HCT116 spheroids treated with control (DMSO), 10 nM paclitaxel, 250 nM C75 or both for 6 days. […] The scale bar for the images is 100 μm. […] As shown in the images, adding paclitaxel and C75 in combination led to regression in spheroid size compared to each treatment on its own.
The thienoisoquinoline compounds may also have potential for use in combinatorial therapies. […]

[3] = target: Purified free alpha and beta tubulin dimers (Homo sapiens, UniProt P07437+Q71U36); experiment: Microtubule polymerization in vitro; assay type: biochemical; conditions: 35 minutes at 37° C., Mg2+ and GTP, 20% glycerol buffer
Description: FIG. 10 is a graph showing microtubule polymerization in vitro in the presence of 200 nM C75 or DMSO (control). Bars show SEM. Microtubules fail to polymerize in the presence of C75, but not in control samples, showing that tubulin could be a target of C75 in vitro.
Purified free alpha and beta tubulin dimers were added at a concentration of […] to a 20% glycerol buffer and allowed to polymerize in the presence of Mg^2+ and GTP for 35 minutes at 37° C. While DMSO had no effect on microtubule polymerization, 200 nM of C75 prevented polymerization. […] This supports that C75 binds tubulin at a different site compared to other microtubule-depolymerizing drugs.

Question: For `COc1ccc(S(=O)(=O)N2Cc3ccccc3-c3sc(Br)cc32)cc1` [Compound C75], which “lowering of the IC50 of C75 by subthreshold colchicine” value [1] is on record?
Answer: ~2 fold

Question: And the “spheroid growth, single drug” value ([2]; 10 nM paclitaxel or 250 nM C75 alone, 6 days)?
Answer: failed to grow

Question: And the “spheroid growth, combination” value ([2]; 250 nM C75 + 10 nM paclitaxel, 6 days)?
Answer: regressed in size

Question: And the effect on spheroids ([2]; HCT116 spheroids)?
Answer: regress the growth

Question: And the “concentration that prevented microtubule polymerization” value [3]?
Answer: 200 nM
